Results published in patent publication US11352320B2 (Merck Sharp & Dohme Corp., priority 2018, dated 2022).

Each molecule was assayed against IDO1 (Homo sapiens, UniProt P14902) (assay: IDO1 Cellular Assay in Hela Cells Stimulated with IFNγ). Settings: IFNγ 100 ng/mL, 300 uM L-tryptophan, about 48 hours, fluorescence readout, read-out: IDO1 HELA Cell Assay, IC50.
Type: cell-based
Design: endogenous in cells; host or cells: HeLa cells stimulated with IFNγ
Procedure: Biological Assays IDO1 Cellular Assay in Hela Cells Stimulated with IFNγ
Hela cells were cultured in complete Hela culture medium (90% EMEM, 10% heat-inactivated fetal bovine serum) and expanded to about 1×10^9 cells. The cells were then collected and frozen down at 1×10^7 cells/vial in 1 mL frozen medium (90% complete Hela culture medium, 10% DMSO)
Compounds to be tested were serially diluted in ten 3-fold steps in DMSO starting from 10 mM DMSO stocks in Echo low volume plate(s). Compound dilutions or DMSO alone were then dispensed from the dilution plate(s) into Greiner black 384-well assay plate(s) (catalog #781086, 50 nL/well) using an Echo 550 acoustic liquid handler (Labcyte).
Frozen Hela cells were thawed and transferred into Hela assay medium (99% complete Hela culture medium, 1% Pen/Strep) with 20 mL medium/vial of cells. The cells were spun down at 250 g in a table top centrifuge for 5 min and suspended in same volume of Hela assay medium. The cells were then counted and adjusted to a density of 2×10^5 cells/ml in Hela assay medium. Sterile L-tryptophan were added to the cells with final concentration of 300 uM L-tryptophan. A small aliquot (2 mL/plate) of Hela cells were set aside and were not treated with IFNγ, to serve as the Max-E control. The rest of Hela cells were added with sterile IFNγ (Cat #285-IF, R & D systems) with a final concentration of 100 ng/mL.
Hela cells with and without IFNγ were dispensed to the respective wells of 384-well assay plates containing the compounds. The plates were incubated for about 48 hours at a 37° C., 5% CO2 incubator. Afterwards, 12 μL of 0.5 M methyl isonipecotate in dimethyl sulfoxide were added into each well and the plates were sealed and incubated at 37° C. without CO2 overnight. The plates were centrifuged for 1 min at 200×g. The resulting fluorescence was measured in a Spectramax plate reader (Molecular Devices) with a 400 nm excitation filter and a 510 nm emission filter.
The fluorescence intensity of each well was corrected for the background observed in wells with non-IFNγ-treated cells and was expressed as a fraction of the intensity observed in wells of IFNγ-treated cells and DMSO only. Potencies were calculated by linear least squares fit to the four parameter logistic IC50 equation.
Compounds disclosed herein generally have IC50 of about 1 nM to about 1,000 nM, or more specifically, about 2 nM to about 800 nM, or more specifically, about 5 nM to about 600 nM, or still more specifically, about 10 nM to about 500 nM. Such a result is indicative of the intrinsic activity of the compounds in use as an inhibitor of an IDO enzyme.

Chain of IDO1 (P14902 whole entry): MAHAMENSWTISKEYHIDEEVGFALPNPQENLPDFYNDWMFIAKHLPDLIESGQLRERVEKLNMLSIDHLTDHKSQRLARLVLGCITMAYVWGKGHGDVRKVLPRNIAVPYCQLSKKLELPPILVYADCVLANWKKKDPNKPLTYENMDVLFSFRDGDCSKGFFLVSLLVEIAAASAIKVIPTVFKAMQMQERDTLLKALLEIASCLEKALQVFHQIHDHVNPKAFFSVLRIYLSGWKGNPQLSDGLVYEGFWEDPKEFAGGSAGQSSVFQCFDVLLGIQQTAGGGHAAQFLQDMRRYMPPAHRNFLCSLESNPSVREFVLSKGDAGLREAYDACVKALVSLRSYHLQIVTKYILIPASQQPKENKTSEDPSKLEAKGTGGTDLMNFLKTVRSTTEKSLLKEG

Row | IC50 [nM] | SMILES
1 | 590 | Cc1nc(NC23CC(C(C)C(=O)Nc4ccc(F)cc4)(C2)C3)c2cc(F)ccc2n1 (single isomer, unassigned) [Example 6]
2 | 17.7 | Cc1nc(NC23CC(C(C)C(=O)Nc4ccc(F)cc4)(C2)C3)c2cc(F)ccc2n1 (single isomer, unassigned) [Example 7]
3 | 208 | CC(C(=O)Nc1ccc(F)cc1)C12CC(Nc3ncnc4ccc(F)cc34)(C1)C2 (single isomer, unassigned) [Example 10, N-(4-fluorophenyl)-2-(3-((6-fluoroquinazolin-4-yl)amino)bicyclo[1.1.1]pentan-1-yl)propanamide]
4 | 587 | CC(C(=O)Nc1ccc(F)cc1)C12CC(Nc3nccc4cccnc34)(C1)C2 (centres unmarked) [Example 12, N-(4-fluorophenyl)-2-{3-[(1,7-naphthyridin-8-yl)amino]bicyclo[1.1.1]pentan-1-yl}propanamide]
5 | 138 | CC(C(=O)Nc1ccc(F)cc1)C12CC(Nc3ncc(C(F)(F)F)cc3F)(C1)C2 (centres unmarked) [Example 13, N-(4-fluorophenyl)-2-(3-{[3-fluoro-5-(trifluoromethyl)pyridin-2-yl]amino}bicyclo[1.1.1]pentan-1-yl)propanamide]
6 | 52.4 | Cc1nc(NC23CC(C(C)C(=O)Nc4ccc(F)cc4)(C2)C3)ccc1C(F)(F)F (centres unmarked) [Example 14, N-(4-fluorophenyl)-2-(3-{[6-methyl-5-(trifluoromethyl)pyridin-2-yl]amino}bicyclo[1.1.1]pentan-1-yl)propanamide]
7 | 79 | CC(C(=O)Nc1ccc(F)cc1)C12CC(Nc3ccc(C(F)(F)F)cn3)(C1)C2 (centres unmarked) [Example 15, N-(4-fluorophenyl)-2-(3-{[5-(trifluoromethyl)pyridin-2-yl]amino}bicyclo[1.1.1]pentan-1-yl)propanamide]
8 | 27.2 | CC(C(=O)Nc1ccc(F)cc1)C12CC(Nc3cc(C(F)(F)F)ncn3)(C1)C2 (centres unmarked) [Example 16, N-(4-fluorophenyl)-2-(3-{[6-(trifluoromethyl)pyrimidin-4-yl]amino}bicyclo[1.1.1]pentan-1-yl)propanamide]

Continued, molecule first:

Row | SMILES | IC50 [nM]
9 | Cc1nccc(NC23CC(C(C)C(=O)Nc4ccc(Cl)cc4)(C2)C3)n1 (racemic) [Example 1, N-(4-chlorophenyl)-2-(3-((2-methylpyrimidin-4-yl)amino)bicyclo[1.1.1]pentan-1-yl)propanamide] | 33.3
10 | Cc1nccc(NC23CC([C@H](C)C(=O)Nc4ccc(Cl)cc4)(C2)C3)n1 (single isomer, unassigned) [Example 2, N-(4-chlorophenyl)-2-(3-((2-methylpyrimidin-4-yl)amino)bicyclo[1.1.1]pentan-1-yl)propanamide] | 33.3
11 | Cc1nccc(NC23CC([C@H](C)C(=O)Nc4ccc(Cl)cc4)(C2)C3)n1 (single isomer, unassigned) [Example 3, N-(4-chlorophenyl)-2-(3-((2-methylpyrimidin-4-yl)amino)bicyclo[1.1.1]pentan-1-yl)propanamide] | 428
12 | CC(C(=O)Nc1ccc(F)cc1)C12CC(Nc3ncnc4ccccc34)(C1)C2 (single isomer, unassigned) [Example 4, N-(4-fluorophenyl)-2-(3-(quinazolin-4-ylamino)bicyclo[1.1.1]pentan-1-yl)propanamide] | 388
13 | CC(C(=O)Nc1ccc(F)cc1)C12CC(Nc3nc(Cl)nc4c3CCC4)(C1)C2 (single isomer, unassigned) [Example 8, 2-(3-((2-chloro-6,7-dihydro-5H-cyclopenta[d]pyrimidin-4-yl)amino)bicyclo[1.1.1]pentan-1-yl)-N-(4-fluorophenyl)propanamide] | 330
14 | CC(C(=O)Nc1ccc(F)cc1)C12CC(Nc3nc(Cl)nc4c3CCC4)(C1)C2 (single isomer, unassigned) [Example 9, 2-(3-((2-chloro-6,7-dihydro-5H-cyclopenta[d]pyrimidin-4-yl)amino)bicyclo[1.1.1]pentan-1-yl)-N-(4-fluorophenyl)propanamide] | 11.1
